From PubChem BioAssay (NCI)
Several values for one entry are separate records, joined by “and”; a condition that tells them apart may be missing. Identical values can stand only once.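 48-hour exposure; five concentrations; linearly interpolated endpoints. GI50: concentration for 50% inhibition of growth. The concentration for full growth arrest is given as TGI.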

Tests used:
Experiment in all cases: inhibition of tumour cell growth, NCI panel, 48 h
MDA-MB-435 = system: MDA-MB-435
HOP-92 NSCLC = system: HOP-92 NSCLC
LOX IMVI melanoma = system: LOX IMVI melanoma
EKVX NSCLC = system: EKVX NSCLC
SF-268 CNS = system: SF-268 CNS
SW-620 colon = system: SW-620 colon
UACC-257 melanoma = system: UACC-257 melanoma
SK-MEL-28 melanoma = system: SK-MEL-28 melanoma
HCT-116 colon = system: HCT-116 colon
NCI-H23 lung = system: NCI-H23 lung

Compound	GI50 (MDA-MB-435)	TGI (MDA-MB-435)	GI50 (HOP-92 NSCLC)	TGI (HOP-92 NSCLC)	GI50 (LOX IMVI melanoma)	TGI (LOX IMVI melanoma)	GI50 (EKVX NSCLC)	TGI (EKVX NSCLC)	GI50 (SF-268 CNS)	TGI (SF-268 CNS)	GI50 (SW-620 colon)	TGI (SW-620 colon)	GI50 (UACC-257 melanoma)	TGI (UACC-257 melanoma)	GI50 (SK-MEL-28 melanoma)	TGI (SK-MEL-28 melanoma)	GI50 (HCT-116 colon)	TGI (HCT-116 colon)	GI50 (NCI-H23 lung)	TGI (NCI-H23 lung)
O=C1OCC2=C1C(c1cccc(C(F)(F)F)c1)c1cc3c(cc1N2CCO)CCC3 (stereo unspecified)	0.05 µM	0.159 µM	1.74 µM	10.3 µM	0.271 µM	6.77 µM	0.278 µM	9.52 µM	0.266 µM	7.15 µM	0.189 µM	9.16 µM	6.5 µM	15.2 µM	1.41 µM	12.1 µM	0.175 µM	6.55 µM	0.321 µM	14.5 µM
N/C(=N\c1nc2ccccc2s1)NC(=O)Nc1cccc2ccccc12	0.0321 µM	0.143 µM	1.81 µM	> 47.3 µM	0.825 µM	> 100 µM	0.462 µM	> 100 µM	2.72 µM	> 100 µM	0.26 µM	> 100 µM	> 100 µM	> 100 µM	12.9 µM	> 100 µM			0.462 µM	> 28.4 µM
CCOC(=O)/C(=C\c1ccc(F)cc1)C(C)=O		> 100 µM		44.3 µM		36.7 µM		83.6 µM		> 100 µM		> 100 µM		44.7 µM				91.8 µM		46 µM
CN(C)CCNC(=O)c1nc([N+](=O)[O-])cn1C		> 100 µM		> 100 µM		> 100 µM				> 100 µM		> 100 µM		> 100 µM		> 100 µM		> 100 µM		> 100 µM
C[C@@H]1COC(Nc2ccc3ncnc(Nc4ccc(OCc5nccs5)c(Cl)c4)c3c2)=N1	6.2 µM and 6.24 µM	> 10 µM and 23.1 µM	0.633 µM and 0.782 µM	8.43 µM and 5.68 µM	3.73 µM and 4.31 µM	> 10 µM and 17 µM	0.252 µM	> 10 µM	6.27 µM and 5.59 µM	> 10 µM and 27.7 µM	> 10 µM and 14.6 µM	> 10 µM and 59.7 µM	> 10 µM and 5.59 µM	> 10 µM and 25.6 µM	4.46 µM and 5.45 µM	> 10 µM and 18.9 µM	3.94 µM and 4.75 µM	> 10 µM and 19 µM	8.41 µM and 8.45 µM	> 10 µM and 37 µM
Cc1cc2nc3c4cccc(O)c4n(CCN(C)C)c3nc2cc1C	1.65 µM	3.12 µM	1.57 µM	7.58 µM	1.24 µM	2.6 µM	2.89 µM	17.7 µM	4.23 µM	27.6 µM	1.53 µM	8.08 µM	2 µM	4.58 µM	1.78 µM	3.34 µM	1.49 µM	7.97 µM	3.07 µM	16 µM
CN(C)S(=O)(=O)c1ccc(Nc2ccc(O)c3c2C(=O)c2c([N+](=O)[O-])ccc(O)c2C3=O)cc1		> 100 µM		> 100 µM		> 100 µM		> 100 µM		> 100 µM		> 100 µM		> 100 µM		> 100 µM		> 100 µM		> 100 µM
CNCCOC(=O)/C=C1/CCC2C(C(O)CC3C(C)(C(=O)OC)CCCC23C)C1C (stereo unspecified)	0.0289 µM	0.0881 µM	0.0243 µM	0.0764 µM	0.0192 µM	0.042 µM	< 0.0136 µM	0.0331 µM	< 0.01 µM	0.02 µM	0.018 µM	0.0394 µM	0.0226 µM	0.0512 µM	0.029 µM	0.0758 µM	0.0158 µM	0.0311 µM	0.0153 µM	0.0355 µM
